Source: PubChem BioAssay AID256 (DTP/NCI, 2004)
“And” between values parts separate entries of the source, which are not always exact repeats. Equal entries are not always repeated. Toxic doses and inconclusive results are not listed. Rule for the calls: active = survival T/C of 150% or more; inactive = T/C below 125% in these data.

Tested on: CD2F1 mice, L1210 leukemia ip, survival T/C
Test: NCI In Vivo Anticancer Drug Screen. Data for tumor model L1210 Leukemia (intraperitoneal) in CD2F1 (CDF1) mice
Conditions: higher = longer survival
Method in brief: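 Read-out first: treated-group measurement over vehicle-control measurement, expressed as a ratio. Animals bore a transplanted tumor line and were dosed with compound or vehicle.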

[1] = endpoint: mean survival time, dose: 100.0 mg/kg/injection, schedule: Q01DX009 (ip), vehicle: other
[2] = endpoint: mean survival time, dose: 200.0 mg/kg/injection, schedule: Q01DX009 (ip), vehicle: other
[3] = endpoint: mean survival time, dose: 100.0 mg/kg/injection, schedule: Q01DX001 (ip), vehicle: saline with Tween-80
[4] = endpoint: mean survival time, dose: 200.0 mg/kg/injection, schedule: Q01DX001 (ip), vehicle: saline with Tween-80
[5] = endpoint: mean survival time, dose: 400.0 mg/kg/injection, schedule: Q01DX001 (ip), vehicle: saline with Tween-80
[6] = endpoint: mean survival time, dose: 100.0 mg/kg/injection, schedule: Q01DX009 (ip), vehicle: saline with Tween-80
[7] = endpoint: mean survival time, dose: 25.0 mg/kg/injection, schedule: Q01DX009 (ip), vehicle: saline with Tween-80
[8] = endpoint: mean survival time, dose: 50.0 mg/kg/injection, schedule: Q01DX009 (ip), vehicle: saline with Tween-80
[9] = endpoint: mean survival time, dose: 50.0 mg/kg/injection, schedule: Q04DX002 (ip), vehicle: saline with Tween-80
[10] = endpoint: mean survival time, dose: 100.0 mg/kg/injection, schedule: Q04DX002 (ip), vehicle: saline with Tween-80
[11] = endpoint: mean survival time, dose: 200.0 mg/kg/injection, schedule: Q01DX009 (ip), vehicle: saline with Tween-80
[12] = endpoint: mean survival time, dose: 200.0 mg/kg/injection, schedule: Q04DX002 (ip), vehicle: saline with Tween-80
[13] = endpoint: mean survival time, dose: 400.0 mg/kg/injection, schedule: Q01DX009 (ip), vehicle: saline with Tween-80
[14] = endpoint: mean survival time, dose: 100.0 mg/kg/injection, schedule: Q04DX003 (ip), vehicle: saline with Tween-80
[15] = endpoint: mean survival time, dose: 200.0 mg/kg/injection, schedule: Q04DX003 (ip), vehicle: saline with Tween-80
[16] = endpoint: mean survival time, dose: 400.0 mg/kg/injection, schedule: Q04DX003 (ip), vehicle: saline with Tween-80

Measured: T/C

O=C(C1CCCCC1)C1CCC2(CCCCC2)CC1
inactive: endpoint: mean survival time, dose: 12.5 mg/kg/injection, schedule: Q01DX009 (ip), vehicle: other 92 % of control | endpoint: mean survival time, dose: 25.0 mg/kg/injection, schedule: Q01DX009 (ip), vehicle: other 87 % of control | endpoint: mean survival time, dose: 50.0 mg/kg/injection, schedule: Q01DX009 (ip), vehicle: other 93 % of control | [1] 92 % of control | [2] 95 % of control

O=C(Cl)C1CCCCC1
inactive: [3] 93 % of control | [4] 97 % of control | [5] 89 % of control

Cc1c2c(cc3c1CCC1(C)C3CCC1C(C)CCC(C)C(C)C)CC(O)CC2 (stereo not drawn)
inactive: endpoint: mean survival time, dose: 75.0 mg/kg/injection, schedule: Q01DX001 (ip), vehicle: saline with Tween-80 92 % of control | endpoint: mean survival time, dose: 150.0 mg/kg/injection, schedule: Q01DX001 (ip), vehicle: saline with Tween-80 90 % of control | endpoint: mean survival time, dose: 300.0 mg/kg/injection, schedule: Q01DX001 (ip), vehicle: saline with Tween-80 90 % of control

COCC/C(COC)=N/N
inactive: [3] 104 % of control | [6] 94 % of control | [4] 108 % of control | [5] 108 % of control

CCCCN(C)CCNc1cc(C)nc(Nc2nc3ccc(Cl)cc3[nH]2)n1
inactive: endpoint: mean survival time, dose: 16.5 mg/kg/injection, schedule: Q01DX009 (ip), vehicle: saline with Tween-80 88 % of control | [7] 97 % of control | endpoint: mean survival time, dose: 37.5 mg/kg/injection, schedule: Q01DX009 (ip), vehicle: saline with Tween-80 95 % of control | [8] 90 % of control | [3] 90 % of control | [4] 94 % of control

Cc1ccccc1N(CC1CO1)CC1CO1 (stereo not drawn)
inactive: endpoint: mean survival time, dose: 12.5 mg/kg/injection, schedule: Q01DX009 (ip), vehicle: saline 115 % of control and 104 % of control | endpoint: mean survival time, dose: 25.0 mg/kg/injection, schedule: Q01DX009 (ip), vehicle: saline 98 % of control and 106 % of control | endpoint: mean survival time, dose: 50.0 mg/kg/injection, schedule: Q01DX009 (ip), vehicle: saline 100 % of control and 111 % of control | endpoint: mean survival time, dose: 100.0 mg/kg/injection, schedule: Q01DX009 (ip), vehicle: saline 100 % of control and 106 % of control | endpoint: mean survival time, dose: 200.0 mg/kg/injection, schedule: Q01DX009 (ip), vehicle: saline 101 % of control and 108 % of control | endpoint: mean survival time, dose: 400.0 mg/kg/injection, schedule: Q01DX009 (ip), vehicle: saline 100 % of control and 106 % of control

O=C(OCc1ccccc1)C1CC1
inactive: endpoint: mean survival time, dose: 25.0 mg/kg/injection, schedule: Q01DX005 (ip), vehicle: saline with Tween-80 89 % of control | [7] 96 % of control | endpoint: mean survival time, dose: 50.0 mg/kg/injection, schedule: Q01DX005 (ip), vehicle: saline with Tween-80 97 % of control | [8] 104 % of control | [9] 97 % of control | endpoint: mean survival time, dose: 100.0 mg/kg/injection, schedule: Q01DX005 (ip), vehicle: saline with Tween-80 93 % of control | [6] 100 % of control | [10] 102 % of control | endpoint: mean survival time, dose: 200.0 mg/kg/injection, schedule: Q01DX005 (ip), vehicle: saline with Tween-80 93 % of control | [11] 93 % of control | [12] 102 % of control

COC(=O)c1cc([N+](=O)[O-])cc([N+](=O)[O-])c1Sc1ncnc2nc[nH]c12
inactive: endpoint: mean survival time, dose: 0.63 mg/kg/injection, schedule: Q01DX005 (ip), vehicle: other 100 % of control | endpoint: mean survival time, dose: 1.25 mg/kg/injection, schedule: Q01DX005 (ip), vehicle: other 100 % of control | endpoint: mean survival time, dose: 2.5 mg/kg/injection, schedule: Q01DX005 (ip), vehicle: other 107 % of control | endpoint: mean survival time, dose: 5.0 mg/kg/injection, schedule: Q01DX005 (ip), vehicle: other 112 % of control | endpoint: mean survival time, dose: 10.0 mg/kg/injection, schedule: Q01DX005 (ip), vehicle: other 112 % of control | endpoint: mean survival time, dose: 40.0 mg/kg/injection, schedule: Q01DX005 (ip), vehicle: other 95 % of control

N#CCc1ccc(N=Nc2c(N)nc(N)[nH]c2=O)cc1
inactive: [6] 99 % of control | [11] 96 % of control | [13] 87 % of control

O=C(O)CCC(Cc1ccccc1)C(=O)O (stereo not drawn)
inactive: [6] 97 % of control | [11] 94 % of control | [13] 86 % of control

CC(=O)OCC1OC(c2cccc3c2c2ccccc2n3S(=O)(=O)c2ccccc2)C(O)C1O (stereo not drawn)
inactive: endpoint: median survival time, dose: 12.5 mg/kg/injection, schedule: Q01DX005 (ip), vehicle: saline with Tween-80 110 % of control | endpoint: median survival time, dose: 25.0 mg/kg/injection, schedule: Q01DX005 (ip), vehicle: saline with Tween-80 107 % of control | endpoint: median survival time, dose: 50.0 mg/kg/injection, schedule: Q01DX005 (ip), vehicle: saline with Tween-80 96 % of control | endpoint: median survival time, dose: 100.0 mg/kg/injection, schedule: Q01DX005 (ip), vehicle: saline with Tween-80 98 % of control | endpoint: median survival time, dose: 200.0 mg/kg/injection, schedule: Q01DX005 (ip), vehicle: saline with Tween-80 98 % of control

Nc1ncnc2oc(-c3ccccc3)c(-c3ccccc3)c12
inactive: [3] 87 % of control | [4] 89 % of control | [5] 87 % of control

Cc1ccc2nc(-c3ccc(N=Cc4ccccc4O)cc3)sc2c1
inactive: endpoint: mean survival time, dose: 12.5 mg/kg/injection, schedule: Q01DX009 (ip), vehicle: olive oil, sesame oil, peanut oil 100 % of control | endpoint: mean survival time, dose: 25.0 mg/kg/injection, schedule: Q01DX009 (ip), vehicle: olive oil, sesame oil, peanut oil 98 % of control | endpoint: mean survival time, dose: 50.0 mg/kg/injection, schedule: Q01DX009 (ip), vehicle: olive oil, sesame oil, peanut oil 102 % of control | endpoint: mean survival time, dose: 100.0 mg/kg/injection, schedule: Q01DX009 (ip), vehicle: olive oil, sesame oil, peanut oil 95 % of control | endpoint: mean survival time, dose: 200.0 mg/kg/injection, schedule: Q01DX009 (ip), vehicle: olive oil, sesame oil, peanut oil 100 % of control | endpoint: mean survival time, dose: 400.0 mg/kg/injection, schedule: Q01DX009 (ip), vehicle: olive oil, sesame oil, peanut oil 96 % of control

Clc1ncnc2c1ncn2C1CCCCO1 (stereo not drawn)
inactive: endpoint: mean survival time, dose: 176.0 mg/kg/injection, schedule: Q01DX009 (ip), vehicle: other 117 % of control

N=C(N)c1ccc(N=Nc2c(O)ccc3cc(O)ccc23)cc1
inactive: endpoint: median survival time, dose: 12.5 mg/kg/injection, schedule: Q01DX005 (ip), vehicle: Klucel (hydroxypropylcellulose) (HPC) 104 % of control and 107 % of control | endpoint: median survival time, dose: 25.0 mg/kg/injection, schedule: Q01DX005 (ip), vehicle: Klucel (hydroxypropylcellulose) (HPC) 100 % of control and 102 % of control | endpoint: median survival time, dose: 50.0 mg/kg/injection, schedule: Q01DX005 (ip), vehicle: Klucel (hydroxypropylcellulose) (HPC) 90 % of control and 103 % of control | endpoint: median survival time, dose: 100.0 mg/kg/injection, schedule: Q01DX005 (ip), vehicle: Klucel (hydroxypropylcellulose) (HPC) 95 % of control and 107 % of control | endpoint: median survival time, dose: 200.0 mg/kg/injection, schedule: Q01DX005 (ip), vehicle: Klucel (hydroxypropylcellulose) (HPC) 104 % of control

O=C(O)c1cc2c([nH]1)=C(O)NN(O)C=2
inactive: endpoint: mean survival time, dose: 12.5 mg/kg/injection, schedule: Q04DX002 (ip), vehicle: saline with Tween-80 101 % of control | endpoint: mean survival time, dose: 25.0 mg/kg/injection, schedule: Q04DX002 (ip), vehicle: saline with Tween-80 101 % of control | [9] 111 % of control

O=C(O)CCC(=O)c1ccc(Br)cc1
inactive: [6] 94 % of control | [14] 101 % of control | [11] 103 % of control | [15] 97 % of control | [13] 91 % of control | [16] 89 % of control

CCCC/C=C/COCC
inactive: [8] 97 % of control | [6] 94 % of control | [11] 97 % of control

COC1OC2COc3ccccc3OC2C2N=C(N)SC12 (stereo not drawn)
inactive: [3] 100 % of control | [4] 97 % of control

COc1ccc2c(c1)C(=O)C(Br)CC2 (stereo not drawn)
inactive: [3] 101 % of control | [6] 98 % of control and 101 % of control | [10] 101 % of control and 102 % of control | [14] 108 % of control | [4] 93 % of control | [11] 97 % of control and 98 % of control | [12] 100 % of control and 104 % of control | [15] 97 % of control | [5] 95 % of control | endpoint: mean survival time, dose: 400.0 mg/kg/injection, schedule: Q04DX002 (ip), vehicle: saline with Tween-80 103 % of control and 104 % of control | [16] 110 % of control

O=C(CNC(=O)Nc1cccc([N+](=O)[O-])c1)N/N=C/c1ccncc1
inactive: [8] 89 % of control | [6] 89 % of control | [11] 93 % of control

C[N+]12CCC34c5ccccc5NC3C3C(CC(=O)[O-])OCC=C(C1)C3CC42 (stereo not drawn)
inactive: endpoint: mean survival time, dose: 75.0 mg/kg/injection, schedule: Q01DX001 (ip), vehicle: other 96 % of control | endpoint: mean survival time, dose: 150.0 mg/kg/injection, schedule: Q01DX001 (ip), vehicle: other 98 % of control

O=C(CC(O)(C(F)(F)F)C(F)(F)F)c1ccc([N+](=O)[O-])cc1
inactive: [1] 97 % of control | [2] 97 % of control | endpoint: mean survival time, dose: 400.0 mg/kg/injection, schedule: Q01DX009 (ip), vehicle: other 101 % of control
